According to the supplement of paper PMC10307832:

How the values were obtained:
Assay in all cases: relative viability (nuclei count vs DMSO), 5 days (fraction); higher = more cells survive
Everolimus + Phenformin = compound: CO[C@H]1C[C@@H]2CC[C@@H](C)[C@@](O)(O2)C(=O)C(=O)N2CCCC[C@H]2C(=O)O[C@H]([C@H](C)C[C@@H]2CC[C@@H](OCCO)[C@H](OC)C2)CC(=O)[C@H](C)/C=C(\C)[C@@H](O)[C@@H](OC)C(=O)[C@H](C)C[C@H](C)/C=C/C=C/C=C/1C [Everolimus] + N=C(N)NC(=N)NCCc1ccccc1 [Phenformin] (partner 250 µM)
How it was run: (§1)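 Values are medians from duplicate plates. Each reflects relative viability, defined as the nuclei count of treated wells over that of vehicle wells. Lung cancer cell lines in 1536-well plates were pin-tool dosed one day after seeding with one drug alone or with a fixed anchor-drug dose plus five library-drug doses (not always all listed) in √10 steps, then fixed, stained and imaged at 4× after 5 days.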

Everolimus + OSI-027 = compound: CO[C@H]1C[C@@H]2CC[C@@H](C)[C@@](O)(O2)C(=O)C(=O)N2CCCC[C@H]2C(=O)O[C@H]([C@H](C)C[C@@H]2CC[C@@H](OCCO)[C@H](OC)C2)CC(=O)[C@H](C)/C=C(\C)[C@@H](O)[C@@H](OC)C(=O)[C@H](C)C[C@H](C)/C=C/C=C/C=C/1C [Everolimus] + COc1cccc2cc(-c3nc([C@H]4CC[C@H](C(=O)O)CC4)n4ncnc(N)c34)[nH]c12 [OSI-027] (partner 0.5 µM)
How it was run: as §1

Everolimus + Trametinib = compound: CO[C@H]1C[C@@H]2CC[C@@H](C)[C@@](O)(O2)C(=O)C(=O)N2CCCC[C@H]2C(=O)O[C@H]([C@H](C)C[C@@H]2CC[C@@H](OCCO)[C@H](OC)C2)CC(=O)[C@H](C)/C=C(\C)[C@@H](O)[C@@H](OC)C(=O)[C@H](C)C[C@H](C)/C=C/C=C/C=C/1C [Everolimus] + CC(=O)Nc1cccc(-n2c(=O)n(C3CC3)c(=O)c3c(Nc4ccc(I)cc4F)n(C)c(=O)c(C)c32)c1 [Trametinib] (partner 0.02 µM)
How it was run: as §1

Everolimus + Crizotinib = compound: CO[C@H]1C[C@@H]2CC[C@@H](C)[C@@](O)(O2)C(=O)C(=O)N2CCCC[C@H]2C(=O)O[C@H]([C@H](C)C[C@@H]2CC[C@@H](OCCO)[C@H](OC)C2)CC(=O)[C@H](C)/C=C(\C)[C@@H](O)[C@@H](OC)C(=O)[C@H](C)C[C@H](C)/C=C/C=C/C=C/1C [Everolimus] + C[C@@H](Oc1cc(-c2cnn(C3CCNCC3)c2)cnc1N)c1c(Cl)ccc(F)c1Cl [Crizotinib] (partner 1 µM)
How it was run: as §1

Cell Line	relative viability (Everolimus + Phenformin; first compound 0.01 µM)	relative viability (Everolimus + Phenformin; first compound 0.03162 µM)	relative viability (Everolimus + Phenformin; first compound 0.1 µM)	relative viability (Everolimus + Phenformin; first compound 0.3162 µM)	relative viability (Everolimus + Phenformin; first compound 1 µM)	relative viability (Everolimus + OSI-027; first compound 0.01 µM)	relative viability (Everolimus + OSI-027; first compound 0.03162 µM)	relative viability (Everolimus + OSI-027; first compound 0.1 µM)	relative viability (Everolimus + OSI-027; first compound 0.3162 µM)	relative viability (Everolimus + OSI-027; first compound 1 µM)	relative viability (Everolimus + Trametinib; first compound 0.01 µM)	relative viability (Everolimus + Trametinib; first compound 0.03162 µM)	relative viability (Everolimus + Trametinib; first compound 0.1 µM)	relative viability (Everolimus + Trametinib; first compound 0.3162 µM)	relative viability (Everolimus + Trametinib; first compound 1 µM)	relative viability (Everolimus + Crizotinib; first compound 0.01 µM)	relative viability (Everolimus + Crizotinib; first compound 0.03162 µM)	relative viability (Everolimus + Crizotinib; first compound 0.1 µM)	relative viability (Everolimus + Crizotinib; first compound 0.3162 µM)	relative viability (Everolimus + Crizotinib; first compound 1 µM)
NCI-H322M	0.647	0.658	0.629	0.714	0.701	0.425	0.501	0.473	0.433	0.495	0.474	0.504	0.495	0.463	0.484	0.914	0.753	0.775	0.795	0.704
NCI-H358	0.208	0.25	0.227	0.234	0.298	0.347	0.337	0.336	0.34	0.378	0.105	0.102	0.114	0.129	0.109	0.528	0.592	0.509	0.542	0.429
NCI-H441	0.798	0.605	0.585	0.772	0.666	0.557	0.479	0.474	0.585	0.358	0.373	0.306	0.327	0.357	0.29	0.881	0.65	0.606	0.766	0.723
NCI-H460	0.492	0.57	0.588	0.538	0.315	0.389	0.503	0.304	0.314	0.333	0.082	0.101	0.114	0.0573	0.124	0.783	0.738	0.808	0.845	0.872
NCI-H520	0.242	0.255	0.242	0.207	0.244	0.21	0.179	0.218	0.185	0.193	0.292	0.286	0.245	0.249	0.256	0.478	0.398	0.426	0.354	0.353
NCI-H596	0.494	0.505	0.396	0.513	0.554	0.506	0.471	0.417	0.45	0.457	0.613	0.507	0.497	0.525	0.575	0.677	0.65	0.631	0.619	0.683
